Laboratory results reported in US8524765B2, “Compounds that modulate intracellular calcium” (Calcimedica, Inc., priority 2007, dated 2013).

Experiments:
hCav.1.2/β2/α2δ channels = biological target: T1, hCav.1.2/β2/α2δ channels (Homo sapiens, UniProt Q13936); assay: Cloned L-type calcium channels in CHO cells (PatchXpress patch clamp); format: cell-based; conditions: FIG. 16
T1 construct: host or cells: CHO cells
Protocol: Compound A stock solutions were prepared in dimethyl sulfoxide (DMSO) and stored frozen. Compound A concentrations were prepared fresh daily by diluting stock solutions into an appropriate HEPES-buffered physiological saline solution. Each test compound formulation was sonicated at room temperatrue for at least 20 minutes to facilitate dissolution. A glass-lined 96-well compound plate was loaded with the appropriate amounts of test and control solutions, and placed in the plate well of PatchXpress®. The effects of five concentrations were evaluated. Stock solutions of the positive control were prepared in batches and frozen. The positive control concentration was prepared fresh daily by diluting stock solutions into HB-PS. The final DMSO concentration was 0.3%.
Cells were maintained in tissue culture incubators per ChanTest SOP. […]
In preparation for a recording session, intracellular solution was loaded into the intracellular compartments of the planar electrode. After establishment of a whole-cell configuration, membrane currents were recorded using dual-channel patch clamp amplifiers in the PatchXpress® system. […] Onset and steady state block of hCav.1.2/β2/α2δ channels were measured using a stimulus voltage pattern consisting of a depolarizing test pulse at 10 s intervals from a −80 mV holding potential. […] Peak current was measured during the step to 10 mV. […]

Jurkat T cells = assay: IL-2 secretion from Jurkat T cells (PHA+TPA, ELISA); format: cell-based
Protocol: To measure IL-2 secretion from Jurkat T cells, cells were plated in a 96 well plate at a density of 1.5×10^5 cells/well. Cells were stimulated with 2.5 μg/ml PHA lectin+80 nM TPA for 20 hr in the presence or absence of a compound of Formula (I) or Formula (II). The medium was then collected and analyzed for IL-2 levels by ELISA (BioSource) according to the manufacturer's protocols.

T1 sequence (Q13936 whole entry): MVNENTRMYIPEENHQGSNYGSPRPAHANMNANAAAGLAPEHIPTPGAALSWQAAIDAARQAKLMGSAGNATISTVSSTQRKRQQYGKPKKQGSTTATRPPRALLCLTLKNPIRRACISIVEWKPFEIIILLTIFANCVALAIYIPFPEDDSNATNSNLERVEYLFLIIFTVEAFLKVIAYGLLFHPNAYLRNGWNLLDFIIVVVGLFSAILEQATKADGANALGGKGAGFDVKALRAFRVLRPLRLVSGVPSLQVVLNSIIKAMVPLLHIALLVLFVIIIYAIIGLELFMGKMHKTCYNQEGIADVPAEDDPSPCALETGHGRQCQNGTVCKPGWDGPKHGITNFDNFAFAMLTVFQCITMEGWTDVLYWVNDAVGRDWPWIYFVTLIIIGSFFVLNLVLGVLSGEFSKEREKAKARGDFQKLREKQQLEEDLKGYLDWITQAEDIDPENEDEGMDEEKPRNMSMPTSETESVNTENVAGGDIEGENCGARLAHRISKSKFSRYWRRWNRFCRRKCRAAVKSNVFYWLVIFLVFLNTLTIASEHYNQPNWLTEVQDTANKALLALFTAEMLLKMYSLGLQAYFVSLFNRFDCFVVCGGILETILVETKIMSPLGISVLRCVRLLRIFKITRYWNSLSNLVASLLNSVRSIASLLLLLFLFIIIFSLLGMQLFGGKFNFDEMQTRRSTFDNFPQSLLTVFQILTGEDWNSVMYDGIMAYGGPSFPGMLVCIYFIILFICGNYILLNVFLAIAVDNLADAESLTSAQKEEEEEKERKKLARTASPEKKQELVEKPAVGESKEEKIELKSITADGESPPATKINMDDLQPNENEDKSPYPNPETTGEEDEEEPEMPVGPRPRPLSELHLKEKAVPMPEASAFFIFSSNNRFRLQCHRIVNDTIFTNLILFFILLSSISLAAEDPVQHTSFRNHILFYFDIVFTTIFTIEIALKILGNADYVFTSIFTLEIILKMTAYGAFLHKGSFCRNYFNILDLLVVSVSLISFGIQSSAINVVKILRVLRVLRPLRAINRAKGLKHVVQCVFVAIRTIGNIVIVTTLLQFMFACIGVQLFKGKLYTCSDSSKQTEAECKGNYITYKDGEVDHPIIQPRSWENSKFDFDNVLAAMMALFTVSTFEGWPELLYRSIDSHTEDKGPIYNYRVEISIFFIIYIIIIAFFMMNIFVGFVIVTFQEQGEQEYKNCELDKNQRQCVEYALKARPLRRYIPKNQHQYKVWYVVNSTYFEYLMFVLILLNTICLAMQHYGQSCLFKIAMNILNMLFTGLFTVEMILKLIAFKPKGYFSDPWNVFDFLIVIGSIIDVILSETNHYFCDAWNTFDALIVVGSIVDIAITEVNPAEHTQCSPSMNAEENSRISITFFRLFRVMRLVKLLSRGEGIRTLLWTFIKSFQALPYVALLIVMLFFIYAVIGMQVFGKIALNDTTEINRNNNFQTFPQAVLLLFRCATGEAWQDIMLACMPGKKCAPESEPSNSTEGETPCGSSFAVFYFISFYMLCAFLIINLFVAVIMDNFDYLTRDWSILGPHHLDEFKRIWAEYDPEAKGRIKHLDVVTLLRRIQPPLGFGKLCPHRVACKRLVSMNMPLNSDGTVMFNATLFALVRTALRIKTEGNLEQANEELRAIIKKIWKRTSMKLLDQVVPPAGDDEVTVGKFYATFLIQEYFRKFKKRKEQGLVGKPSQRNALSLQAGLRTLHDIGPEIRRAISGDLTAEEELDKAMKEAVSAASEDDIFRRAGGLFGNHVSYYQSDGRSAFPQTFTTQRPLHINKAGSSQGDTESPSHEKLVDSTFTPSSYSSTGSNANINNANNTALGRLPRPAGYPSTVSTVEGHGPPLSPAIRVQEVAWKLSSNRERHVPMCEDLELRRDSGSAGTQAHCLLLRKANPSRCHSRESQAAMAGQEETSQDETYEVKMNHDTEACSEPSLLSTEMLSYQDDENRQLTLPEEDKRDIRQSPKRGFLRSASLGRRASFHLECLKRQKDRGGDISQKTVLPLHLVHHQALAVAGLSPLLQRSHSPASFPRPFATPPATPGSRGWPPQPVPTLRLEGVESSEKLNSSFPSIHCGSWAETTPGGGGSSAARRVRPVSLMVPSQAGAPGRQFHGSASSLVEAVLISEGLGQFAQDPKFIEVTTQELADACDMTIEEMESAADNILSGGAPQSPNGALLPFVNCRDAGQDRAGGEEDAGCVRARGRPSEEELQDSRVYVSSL
T1 sequence (Q08289 whole entry partner): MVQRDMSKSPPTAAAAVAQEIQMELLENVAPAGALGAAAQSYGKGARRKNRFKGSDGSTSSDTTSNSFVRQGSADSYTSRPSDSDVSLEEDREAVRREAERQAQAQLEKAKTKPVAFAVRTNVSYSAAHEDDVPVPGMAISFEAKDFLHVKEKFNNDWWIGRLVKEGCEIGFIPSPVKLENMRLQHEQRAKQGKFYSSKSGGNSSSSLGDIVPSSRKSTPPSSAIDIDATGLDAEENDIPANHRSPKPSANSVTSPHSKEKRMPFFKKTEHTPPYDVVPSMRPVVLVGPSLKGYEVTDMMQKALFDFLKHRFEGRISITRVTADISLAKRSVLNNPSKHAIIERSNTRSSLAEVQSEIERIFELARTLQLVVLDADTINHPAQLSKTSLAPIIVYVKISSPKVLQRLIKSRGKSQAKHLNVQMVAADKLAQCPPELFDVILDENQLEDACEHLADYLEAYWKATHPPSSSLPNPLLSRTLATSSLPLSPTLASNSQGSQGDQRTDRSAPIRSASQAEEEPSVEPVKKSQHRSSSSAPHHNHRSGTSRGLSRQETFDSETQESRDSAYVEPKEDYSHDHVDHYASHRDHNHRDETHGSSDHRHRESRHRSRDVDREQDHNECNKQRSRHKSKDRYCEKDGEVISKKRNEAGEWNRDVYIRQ
T1 sequence (P54289 25-1103 partner): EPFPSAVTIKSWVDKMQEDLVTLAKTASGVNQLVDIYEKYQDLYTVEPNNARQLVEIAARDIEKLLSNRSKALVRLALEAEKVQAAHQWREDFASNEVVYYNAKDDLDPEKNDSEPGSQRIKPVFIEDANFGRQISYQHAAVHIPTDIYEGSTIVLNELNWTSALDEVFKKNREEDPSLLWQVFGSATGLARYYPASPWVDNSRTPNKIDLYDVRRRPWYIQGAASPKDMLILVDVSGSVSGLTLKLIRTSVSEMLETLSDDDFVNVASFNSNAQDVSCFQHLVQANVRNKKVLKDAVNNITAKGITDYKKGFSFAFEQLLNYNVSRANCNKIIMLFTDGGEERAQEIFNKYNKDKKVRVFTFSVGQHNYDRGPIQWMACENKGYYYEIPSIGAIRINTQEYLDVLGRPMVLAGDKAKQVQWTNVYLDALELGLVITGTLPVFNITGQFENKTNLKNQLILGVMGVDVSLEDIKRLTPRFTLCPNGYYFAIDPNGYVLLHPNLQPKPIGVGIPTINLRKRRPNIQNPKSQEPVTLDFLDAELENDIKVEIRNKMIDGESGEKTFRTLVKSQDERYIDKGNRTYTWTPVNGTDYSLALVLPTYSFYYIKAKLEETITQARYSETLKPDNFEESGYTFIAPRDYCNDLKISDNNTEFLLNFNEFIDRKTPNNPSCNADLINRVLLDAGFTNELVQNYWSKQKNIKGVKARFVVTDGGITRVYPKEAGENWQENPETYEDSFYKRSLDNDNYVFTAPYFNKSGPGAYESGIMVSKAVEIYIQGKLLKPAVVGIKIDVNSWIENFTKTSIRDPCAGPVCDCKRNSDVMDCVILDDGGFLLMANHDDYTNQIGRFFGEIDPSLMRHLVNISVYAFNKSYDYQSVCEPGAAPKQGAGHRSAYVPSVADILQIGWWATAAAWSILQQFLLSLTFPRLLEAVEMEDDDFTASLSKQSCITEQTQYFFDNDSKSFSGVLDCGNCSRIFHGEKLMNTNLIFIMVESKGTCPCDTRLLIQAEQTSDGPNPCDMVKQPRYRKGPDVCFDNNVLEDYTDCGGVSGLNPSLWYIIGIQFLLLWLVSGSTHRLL

- IC50 (Jurkat T cells; Homo sapiens, Jurkat T cells stimulated with PHA+TPA, FIG. 7, read-out: IC50 for inhibition of IL-2 release): ~500 nM
SMILES: O=C(Nc1scc(-c2ccc(Br)cc2)c1C(=O)O)c1ccc(F)cc1 [Compound 1, 2-(4-fluorobenzamido)-4-(4-bromophenyl)thiophene-3-carboxylic acid]
- effect on recombinant Cav1.2 L-type Ca2+ channels (hCav.1.2/β2/α2δ channels): inhibits
- effect of combination with cyclosporin A on IL-2 secretion (Jurkat T cells; Jurkat T cells stimulated with PHA/TPA, Compound 1 together with cyclosporin A, FIG. 10): additive effects
